Test results from paper PMC11670956, “A cell-based Papain-like Protease (PLpro) activity assay for rapid detection of active SARS-CoV-2 infections and antivirals” (PLOS ONE, 2024).

Biological target: T1, SARS-CoV-2 Papain-like protease (PLpro) (Severe acute respiratory syndrome coronavirus 2, UniProt P0DTD1)
T1 construct: gene rep; natural full-length PLpro (nsp3) made in infected VeroE6 cells, crude lysate; mature chain nsp3 of replicase polyprotein 1a / 1ab
Assay: fluorogenic Pun74-R110 peptide cleavage in lysates of infected, inhibitor-pretreated VeroE6 cells
Format: biochemical
Conditions: unreliable (tentative; one experiment in duplicate); inhibitor given to live cells 2 h before infection (0.01 MOI, 24 h, 37 °C); PLpro read in lysate with 50 nM Pun74-R110, 5 mM DTT, pH 7.4, room temp

Structure (SMILES): Cc1ccc(N)cc1C(=O)N[C@H](C)c1cccc2ccccc12 [GRL0617]
- IC50: 38.3 µM
